Assays:
L6 cells = assay: Glucose uptake test by L6 cells; assay type: cell-based; conditions: Rattus norvegicus, 1 hour, 2-deoxy-[3H]-glucose uptake, control (MEM solvent alone) = 100%, read-out: Ratio activity (%); for activity at 10 µg/mL: treatment concentration 10 μg/ml; for activity at 100 µg/mL: treatment concentration 100 μg/ml
Protocol: Glucose Uptake Test by L6 Cells
Each of compounds under test was applied to L6 cells (rat cells originally derived from skeletal muscles) by the following method to measure the stimulating effect on glucose uptake. Namely, L6 cells were suspended in α-minimum essential medium (hereinafter referred to simply as MEM) containing 10% fetal bovine serum (hereinafter referred to simply as FBS), and inoculated into a 96-well plastic plate in an amount of 5×10^4 cells/well and cultivated in an incubator (5% carbon dioxide gas, 37° C.) until the cells grew all over the well. Then, the culture medium was switched to MEM solution containing 2% BS, followed by cultivation further for from 7 to 10 ays (the culture medium was exchanged every three days) to differentiate the cells into skeletal muscle cells. Then, the culture medium was replaced with MEM solution without FBS, followed by cultivation for three hours, and then the compound under test prepared to a treatment concentration (diluted with MEM solution without FBS) was reacted with the skeletal muscle cells at 37° C. for 1 hour. The cells were washed with Krebs-Henseleit-Ringer buffer solution (hereinafter referred to simply as KHR buffer solution), and 2-deoxy-[^3H]-glucose was added to the cells in the KHR buffer solution, followed by treatment at 37° C. for 10 minutes. The treatment solution was removed, the cells were washed with the KHR buffer solution, then the cells were dissolved in a 1N sodium hydroxide solution in an appropriate amount, and the [^3H] radio activity was measured by means of a liquid scintillation counter (cpm) The percentage of the glucose uptake was represented by the percentage of radio activity when the compound under test was applied, taking the radio activity of the control (the MEM solvent alone was applied) as 100%. Each of the compounds as identified in Table 27 was used for treatment at a concentration of each of 10 μg/ml and 100 μg/ml to examine the stimulating effect on glucose uptake.

| SMILES | melting point | activity at 10 µg/mL (L6 cells) | activity at 100 µg/mL (L6 cells) |
| --- | --- | --- | --- |
| C#CCNc1c(S(=O)(=O)c2ccccc2)c(SC)nc2ccnn12 [compound 60] | 162 to 163 °C | > 115% | – |
| COC(=O)c1c(SC)nc2ccnn2c1NOC1OCCO1 [compound 133] | 126.5 to 127.5 °C | > 115% | – |
| CSc1nc2ccnn2c(Nc2cccc([N+](=O)[O-])c2)c1C#N [compound 218] | 180 to 182 °C | > 115% | > 115% |
| CSc1nc2nccn2c(NCc2ccncc2)c1C#N [compound 43] | 204 °C | > 115% | > 115% |
| C#CCNc1c(C#N)c(C)nc2ccnn12 [compound 22] | 169 °C | > 115% | > 115% |
| CSc1nc2ccnn2c(NCc2ccncc2)c1[N+](=O)[O-] [compound 126] | 154 to 155 °C | > 115% | – |
| Cc1nc2ccnn2c(NCc2ccncc2)c1C#N [compound 29] | 165 °C | – | > 115% |
| CSc1nc2cc(C)nn2c(Nc2cccc(C)c2)c1C#N [compound 191] | 174 to 176 °C | > 115% | – |
| CSc1nc2ccnn2c(NCCc2ccccn2)c1C#N [compound 206] | 138 to 139 °C | > 115% | – |
| CCOC(=O)c1c(SC)nc2ccnn2c1Nc1cccc(C#N)c1 [compound 223] | 156 to 157 °C | > 115% | > 115% |
| CSc1nc2ccnn2c(NO)c1C#N [compound 205] | 214 to 218 °C | > 115% | – |
| COC(=O)c1c(SC)nc2ccnn2c1Nc1ccccc1 [compound 122] | – | > 115% | > 115% |
| CSc1nc2ccnn2c(Nc2ccccc2C)c1C#N [compound 203] | 192 to 194 °C | > 115% | – |
| CSc1nc2ccnn2c(N(C)C)c1C#N [compound 17] | 144 °C | – | > 115% |
| CSc1nc2nc3ccccc3n2c(NCc2ccccc2)c1C#N [compound 47] | 233 °C | – | > 115% |
| CSc1nc2ccnn2c(NCc2cccnc2)c1C#N [compound 4] | 192 °C | – | > 115% |
| CCSc1nc2ccnn2c(NCc2ccncc2)c1C#N [compound 68] | 196 to 196.4 °C | > 115% | > 115% |
| N#Cc1c(SC2CCCC2)nc2ccnn2c1NCc1ccncc1 [compound 105] | 153.4 to 155.4 °C | > 115% | – |
| CSc1nc2ccnn2c(Nc2ccc(Cl)cc2)c1C#N [compound 161] | 275 to 276 °C | > 115% | – |
| COc1nc2ccnn2c(NCC2OCCO2)c1C#N [compound 136] | 148.3 to 149.7 °C | > 115% | > 115% |

| SMILES | melting point | activity at 10 µg/mL (L6 cells) | activity at 100 µg/mL (L6 cells) |
| --- | --- | --- | --- |
| COc1nc2ccnn2c(NCc2ccccc2)c1C#N [compound 135] | 148.8 to 149.6 °C | > 115% | > 115% |
| C#CCNc1nc(SC)nc2ccnn12 [compound 64] | 175 °C | > 115% | – |
| C#CCOc1c(C#N)c(SC)nc2ccnn12 [compound 53] | 183 °C | – | > 115% |
| COCSc1nc2ccnn2c(NCc2ccncc2)c1C#N [compound 108] | 164 to 165.5 °C (dec.) | – | > 115% |
| N#Cc1c(SCc2ccccc2)nc2ccnn2c1NCc1ccncc1 [compound 71] | 187.8 to 189.2 °C (dec.) | > 115% | > 115% |
| C=CCONc1c(C#N)c(SC)nc2ccnn12 [compound 174] | 129 to 130 °C | – | > 115% |
| CCOCSc1nc2ccnn2c(NCc2ccncc2)c1C#N [compound 118] | 160 to 161.6 °C | > 115% | > 115% |
| CSc1nc2ccnn2c(NCc2ccccc2)c1C#N [Compound No. 2, 7-benzylamino-5-methylthiopyrazolo[1,5-a]pyrimidine-6-carbonitrile] | 165 °C | > 115% | > 115% |
| CSc1nc2ccnn2c(Nc2cccnc2)c1C#N [compound 178] | 214 to 215 °C | > 115% | > 115% |
| CNc1c(C#N)c(SC)nc2ccnn12 [compound 14] | 216 °C | – | > 115% |
| COC(=O)c1c(SC)nc2ccnn2c1NCc1ccccc1 [compound 121] | 158.5 to 160.5 °C | – | > 115% |
| CCOC(=O)c1c(SC)nc2ccnn2c1Nc1cccc([N+](=O)[O-])c1 [compound 225] | 166 to 168 °C | > 115% | – |
| CCOCNc1c(C#N)c(SC)nc2ccnn12 [compound 9] | 132 to 133 °C | > 115% | > 115% |
| COC(=O)c1c(SC)nc2ccnn2c1NCc1ccccc1 [compound 120] | 124.5 to 126.5 °C | > 115% | – |
| CCNc1c(C#N)c(SC)nc2ccnn12 [compound 15] | 133 °C | – | > 115% |
| CSc1nc2ccnn2c(NCCCn2ccnc2)c1C#N [compound 83] | 144 to 146 °C | – | > 115% |
| CSc1nc2ccnn2c(Nc2ccc(C#N)cc2)c1C#N [compound 168] | 280 to 281 °C | > 115% | > 115% |
| CSc1nc2ccnn2c(Nc2ccc3c(c2)OCO3)c1C#N [compound 211] | 158 to 159 °C | > 115% | > 115% |
| CCOC(=O)c1c(SC)nc2ccnn2c1Nc1ccc([N+](=O)[O-])cc1 [compound 226] | 170 °C | > 115% | > 115% |
| CSc1nc2ccnn2c(NCCC2OCCO2)c1C#N [compound 210] | 96 to 97 °C | > 115% | > 115% |

| SMILES | melting point | activity at 10 µg/mL (L6 cells) | activity at 100 µg/mL (L6 cells) |
| --- | --- | --- | --- |
| CSc1nc2ccnn2c(Nc2ccccc2)c1C#N [compound 80] | 195 to 196 °C | > 115% | – |
| CSc1nc2cc(-c3ccccc3)nn2c(NCc2ccncc2)c1C#N [compound 48] | 232 °C | – | > 115% |
| CSc1nc2ccnn2c(NCc2ccccn2)c1C#N [Compound No. 5] | 190 °C | – | > 115% |
| CSc1nc2ccnn2c(Nc2ccc(C)cc2)c1C#N [compound 164] | 201 to 202 °C | > 115% | – |
| CSc1nc2cc(C)nn2c(NOCc2ccccc2)c1C#N [compound 190] | 155 to 156 °C | – | > 115% |
| CSc1nc2ccnn2c(NCCc2ccncc2)c1C#N [compound 215] | 184 to 185 °C | > 115% | – |
| CSc1nc2ccnn2c(NOCc2ccccc2)c1C(=O)O [compound 132] | – | – | > 115% |
| CSc1nc2cc(-c3ccccc3)nn2c(NCc2ccccc2)c1C#N [compound 46] | 172 °C | – | > 115% |
| CSc1nc2ccnn2c(Nc2cc(C)ns2)c1C#N [compound 177] | 175 to 176 °C | – | > 115% |
| Cc1nc2ccnn2c(NCCc2ccccc2)c1C#N [compound 27] | 143 °C | – | > 115% |
| CSc1nc2ccnn2c(NOCc2ccccc2)c1C#N [compound 172] | 177 to 178 °C | > 115% | > 115% |
| CCOC(=O)c1c(SC)nc2ccnn2c1NCc1ccccc1 [compound 222] | 114 to 115 °C | > 115% | – |
| CSc1nc2ccnn2c(NCCC#N)c1C#N [compound 82] | 188 °C | > 115% | – |
| CCOC(=O)c1c(SC)nc2ccnn2c1Nc1ccc(C#N)cc1 [compound 224] | 178 °C | > 115% | – |
| Cc1nc2ccnn2c(N)c1C#N [compound 25] | – | – | > 115% |
| CSc1nc2ccnn2c(NC2CCCC2)c1C#N [compound 79] | 118 °C | > 115% | – |
| CSc1nc2ccnn2c(NCC2CCCCO2)c1C#N (centres unmarked) [compound 11] | 121 to 122 °C | > 115% | – |
| N#Cc1cnc2ccnn2c1NCc1ccccc1 [compound 28] | 125 °C | – | > 115% |
| CSc1nc(NCc2ccncc2)n2nccc2n1 [compound 40] | 136 °C | > 115% | > 115% |
